Results reported in patent US20250197351A1, “C4-CARBOXYLIC ACID-S[…] DERIVATIVES AND METHODS OF USING” (priority 2022, published 2025).
Several values for one entry are separate records, joined by “and”; a condition that tells them apart may be missing. Identical values can stand only once.

Tests used:
5-HT1A receptor = molecular target: T1, 5-HT1A receptor (Homo sapiens, UniProt P08908); experiment: cAMP-Glo assay of 5-HT1A receptor modulation, CHO-K1/5-HT1A/Ga15 (+5-HT1A) vs CHO-K1/Ga15 (−5-HT1A) cells; type: cell-based; settings: +5-HT1A vs −5-HT1A CHO-K1 cells; 4 μM forskolin; increasing ligand concentration
T1 construct: host or cells: CHO-K1 (co-expressing Ga15)
T1 sequence (P08908 1-422): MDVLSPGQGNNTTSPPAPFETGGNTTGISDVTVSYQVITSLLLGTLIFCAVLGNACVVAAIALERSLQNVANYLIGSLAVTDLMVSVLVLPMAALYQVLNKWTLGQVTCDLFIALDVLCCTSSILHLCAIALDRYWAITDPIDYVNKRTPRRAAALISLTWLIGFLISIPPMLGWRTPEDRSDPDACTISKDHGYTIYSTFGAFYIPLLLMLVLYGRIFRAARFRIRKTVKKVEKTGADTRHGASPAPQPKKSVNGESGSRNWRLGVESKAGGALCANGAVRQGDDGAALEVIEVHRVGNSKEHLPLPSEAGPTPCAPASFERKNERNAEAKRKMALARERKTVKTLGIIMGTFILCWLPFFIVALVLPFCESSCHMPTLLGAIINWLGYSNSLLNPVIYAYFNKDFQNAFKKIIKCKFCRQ

5-HT2A receptor = 5-HT2A receptor (Homo sapiens, UniProt P28223); experiment: [3H]ketanserin competition binding assay (SPA); settings: 1 nM [3H]ketanserin; control ligands
Chain of 5-HT2A receptor (P28223 whole entry): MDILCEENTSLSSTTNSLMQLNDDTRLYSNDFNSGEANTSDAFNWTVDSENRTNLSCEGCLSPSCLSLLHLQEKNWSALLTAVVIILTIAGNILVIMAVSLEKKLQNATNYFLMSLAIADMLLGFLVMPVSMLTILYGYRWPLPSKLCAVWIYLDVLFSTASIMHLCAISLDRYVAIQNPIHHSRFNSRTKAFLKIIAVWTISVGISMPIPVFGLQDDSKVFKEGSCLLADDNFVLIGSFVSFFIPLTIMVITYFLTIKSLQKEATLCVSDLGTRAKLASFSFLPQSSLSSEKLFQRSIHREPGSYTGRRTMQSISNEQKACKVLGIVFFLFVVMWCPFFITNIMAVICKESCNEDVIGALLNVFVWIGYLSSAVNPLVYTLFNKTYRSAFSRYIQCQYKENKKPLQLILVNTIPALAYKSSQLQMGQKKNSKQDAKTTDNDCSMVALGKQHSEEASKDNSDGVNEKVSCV

[1] = Mouse pharmacokinetic (PK) study, parent compound and psilocin metabolite in plasma; type: in vivo; settings: for bioavailability: male, C57Bl/6, mouse, plasma, po; for bioavailability / F(%): parent compound, AUC0-tlast used; for AUC0-inf/Dose / AUC0-tlast/Dose / Cmax/Dose: parent compound in plasma
From the text: Briefly, the procedure was as follows. […] 19, 2022.

[2] = molecular target: T2, 5-HT2A receptor (5-HT2AR) (Mus musculus, UniProt P35363); experiment: Drug-induced Head Twitch Response (HTR); type: in vivo; settings: 1 mg/kg i.p., 15-to-30-minute window post-drug, relative to vehicle
T2 construct: host or cells: C57BL/6 mice, in vivo (neuronal receptor)
T2 sequence (P35363 whole entry): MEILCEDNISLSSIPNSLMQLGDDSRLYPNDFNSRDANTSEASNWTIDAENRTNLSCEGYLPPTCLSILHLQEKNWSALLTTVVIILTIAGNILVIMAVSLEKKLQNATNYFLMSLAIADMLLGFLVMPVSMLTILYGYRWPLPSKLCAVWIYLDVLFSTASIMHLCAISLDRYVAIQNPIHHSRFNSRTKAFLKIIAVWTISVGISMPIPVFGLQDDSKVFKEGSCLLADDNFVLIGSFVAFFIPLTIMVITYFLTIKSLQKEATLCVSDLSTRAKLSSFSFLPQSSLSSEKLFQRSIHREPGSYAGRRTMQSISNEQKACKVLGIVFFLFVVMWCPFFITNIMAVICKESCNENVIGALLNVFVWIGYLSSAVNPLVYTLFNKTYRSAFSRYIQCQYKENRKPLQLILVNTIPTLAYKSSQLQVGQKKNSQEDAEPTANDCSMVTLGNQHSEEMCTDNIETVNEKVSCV

[3] = 1 mg/kg i.v., each animal, 1 mg/kg
[4] = 1 mg/kg p.o., each animal, 1 mg/kg
[5] = 3 mg/kg p.o., each animal, 3 mg/kg
[6] = 10 mg/kg p.o., each animal, 10 mg/kg

With N[C@@H](Cc1c[nH]c2ccccc12)C(=O)O [tryptophan, reference compound] the “5-HT1A receptor modulation (reduction of forskolin-induced cAMP)” value (5-HT1A receptor) was “no reduction in cellular cAMP levels” and the “Binding at 5-HT2A receptor in competition assay” value (5-HT2A receptor) was “no binding”.
For CN(C)CCc1c[nH]c2cccc(O)c12 [psilocin, reference compound], the “5-HT1A receptor modulation (reduction of forskolin-induced cAMP)” value (5-HT1A receptor) was “reduction in cAMP levels” and the “Binding at 5-HT2A receptor in competition assay” value (5-HT2A receptor) was “binding”.
For CN(C)CCc1c[nH]c2cccc(OC(=O)c3ccc(Br)cc3)c12 [C(I)], the “5-HT1A receptor modulation (reduction of forskolin-induced cAMP)” value (5-HT1A receptor) was “mild receptor modulation at higher ligand concentrations”, the bioavailability ([1]; 1 mg/kg, 1 mg/kg p.o., M37 (i.v. group) considered as an outlier, mean ± SD) was 2.3 ± 1.76% and the bioavailability ([1]; 3 mg/kg, 3 mg/kg p.o., M37 (i.v. group) considered as an outlier, mean ± SD) was 3.18 ± 0.189%. The bioavailability ([1]; 3 mg/kg, 3 mg/kg p.o., if M37 (i.v. group) is considered as an outlier, each animal) was 3.02%, the bioavailability ([1]; 10 mg/kg, 10 mg/kg p.o., M37 (i.v. group) considered as an outlier, mean ± SD) was 3.22 ± 0.731% and the bioavailability ([1]; 10 mg/kg, 10 mg/kg p.o., if M37 (i.v. group) is considered as an outlier, each animal) was 2.71%. The Plasma concentration ([1]; parent C(I), 1 mg/kg i.v., 8 h, each animal, BLQ = below 0.5 ng/mL, 1 mg/kg) was “BLQ (2×) and No Peak”, the Plasma concentration ([1]; parent C(I), 1 mg/kg p.o., 1 h, each animal, BLQ = below 0.5 ng/mL, 1 mg/kg) was “BLQ” and the Plasma concentration ([1]; parent C(I), 1 mg/kg p.o., 2 h, each animal, BLQ = below 0.5 ng/mL, 1 mg/kg) was “BLQ”. For the same molecule, the Plasma concentration ([1]; parent C(I), 1 mg/kg p.o., 4 h, each animal, BLQ = below 0.5 ng/mL, 1 mg/kg) was “BLQ”, the Plasma concentration ([1]; parent C(I), 1 mg/kg p.o., 6 h, each animal, BLQ = below 0.5 ng/mL) was “BLQ” and the Plasma concentration ([1]; parent C(I), 1 mg/kg p.o., 8 h, each animal, BLQ = below 0.5 ng/mL) was “BLQ”. The Plasma concentration ([1]; parent C(I), 1 mg/kg p.o., 24 h, each animal, BLQ = below 0.5 ng/mL, 1 mg/kg) was “No Peak and No (2×)”, the Plasma concentration ([1]; parent C(I), 3 mg/kg p.o., 1 h, each animal, BLQ = below 0.5 ng/mL, 3 mg/kg) was 1.33 ng/mL and the Plasma concentration ([1]; parent C(I), 3 mg/kg p.o., 6 h, each animal, BLQ = below 0.5 ng/mL, 3 mg/kg) was 0.250 ng/mL. The Plasma concentration ([1]; parent C(I), 3 mg/kg p.o., 8 h, each animal, BLQ = below 0.5 ng/mL) was “BLQ”, the Plasma concentration ([1]; parent C(I), 3 mg/kg p.o., 24 h, each animal, BLQ = below 0.5 ng/mL) was “No Peak” and the Plasma concentration ([1]; parent C(I), 10 mg/kg p.o., 4 h, each animal, BLQ = below 0.5 ng/mL, 10 mg/kg) was 3.01 ng/mL. For the same molecule, the Plasma concentration ([1]; parent C(I), 10 mg/kg p.o., 24 h, each animal, BLQ = below 0.5 ng/mL) was “No”, the AUC0-inf/Dose [1, 3] was 1014 kg·ng·h/mL/mg and 64.4 kg·ng·h/mL/mg and 51.9 kg·ng·h/mL/mg and the AUC0-tlast/Dose [1, 3] was 1006 kg·ng·h/mL/mg and 63.7 kg·ng·h/mL/mg and 51.4 kg·ng·h/mL/mg. The AUC0-tlast/Dose ([1]; 1 mg/kg i.v., mean of n = 2 (without the possible outlier M37)) was 57.6 (n = 2) h*kg*ng/mL/mg, the AUC0-inf/Dose ([1]; 1 mg/kg i.v., mean ± SD) was 377 ± 552 kg·ng·h/mL/mg and the AUC0-tlast/Dose ([1]; 1 mg/kg i.v., mean ± SD) was 374 ± 548 kg·ng·h/mL/mg. For the same molecule, the AUC0-tlast/Dose [1, 4] was 2.09 kg·ng·h/mL/mg and 0.169 kg·ng·h/mL/mg and 1.75 kg·ng·h/mL/mg, the Cmax/Dose [1, 4] was 0.816 kg·ng/mL/mg and 0.54 kg·ng/mL/mg and 1.28 kg·ng/mL/mg and the AUC0-tlast/Dose ([1]; 1 mg/kg p.o., mean ± SD) was 1.34 ± 1.02 kg·ng·h/mL/mg. The Cmax/Dose ([1]; 1 mg/kg p.o., mean ± SD) was 0.877 ± 0.376 kg·ng/mL/mg, the AUC0-tlast/Dose [1, 5] was 1.75 kg·ng·h/mL/mg and 1.82 kg·ng·h/mL/mg and 1.97 kg·ng·h/mL/mg and the Cmax/Dose [1, 5] was 0.650 kg·ng/mL/mg and 0.720 kg·ng/mL/mg and 0.780 kg·ng/mL/mg. The AUC0-tlast/Dose ([1]; 3 mg/kg p.o., mean ± SD) was 1.85 ± 0.110 kg·ng·h/mL/mg, the Cmax/Dose ([1]; 3 mg/kg p.o., mean ± SD) was 0.717 ± 0.0651 kg·ng/mL/mg and the AUC0-tlast/Dose [1, 6] was 1.58 kg·ng·h/mL/mg and 1.68 kg·ng·h/mL/mg and 2.36 kg·ng·h/mL/mg. For the same molecule, the Cmax/Dose [1, 6] was 0.720 kg·ng/mL/mg and 0.710 kg·ng/mL/mg and 1.09 kg·ng/mL/mg, the AUC0-tlast/Dose ([1]; 10 mg/kg p.o., mean ± SD) was 1.87 ± 0.425 kg·ng·h/mL/mg and the Cmax/Dose ([1]; 10 mg/kg p.o., mean ± SD) was 0.840 ± 0.217 kg·ng/mL/mg. The “F(%)” value ([1]; 1 mg/kg p.o., if M37 (i.v. group) is considered as an outlier, each animal, 1 mg/kg) was 3.01%, the “F(%)” value ([1]; 10 mg/kg p.o., if M37 (i.v. group) is considered as an outlier, each animal, 10 mg/kg) was 2.90% and the Plasma concentration ([1]; psilocin, prodrug 1 mg/kg i.v., 6 h, each animal, BLQ = below 0.2 ng/mL) was “BLQ”. For the same molecule, the Plasma concentration ([1]; psilocin, prodrug 1 mg/kg i.v., 8 h, each animal, BLQ = below 0.2 ng/mL) was “BLQ”, the Plasma concentration ([1]; psilocin, prodrug 1 mg/kg p.o., 8 h, each animal, BLQ = below 0.2 ng/mL) was “BLQ” and the Plasma concentration ([1]; psilocin, prodrug 1 mg/kg p.o., 24 h, each animal, BLQ = below 0.2 ng/mL) was “No Peak (2×) and BLQ”. For the same molecule, the Plasma concentration ([1]; psilocin, prodrug 3 mg/kg p.o., 24 h, each animal, BLQ = below 0.2 ng/mL) was “No Peak”, the Plasma concentration ([1]; psilocin, prodrug 10 mg/kg p.o., 24 h, each animal, BLQ = below 0.2 ng/mL) was “BLQ” and the “Head Twitch Response (HTR) incidence” value [2] was “Elevated incidences of HTR”.
